# Assay results: US7666843B2, “Methods and compositions for treatment of neurological disorder” (Children's Medical Center Corporation, priority 2002, dated 2010)
# Entries after “also recorded” stand apart in the source; their conditions may differ.
# How the values were obtained:
# [1] = tested on: goldfish retinal ganglion cells; assay: Goldfish retinal ganglion cell culture, axon outgrowth bioassay; format: cell-based; conditions: goldfish RGCs; for effect on axon growth induced by inosine: 2-DG 1 mM; for axon outgrowth in response to glucose/mannose analogs: analog alone (L-enantiomers 100 μM, D-glucosamine 25 μM, 2-deoxy-D-glucose 1 mM), FIG. 8a; for effect on glucose-induced axon outgrowth: glucose 10 μM (50 μM with late fraction), dBcAMP 1 mM, 3-O-MG 100:1, 2-DG 1 mM; for effect on axon growth induced by VE<3: FIG. 2; for axon outgrowth in response to monosaccharides: sugar alone, 50 or 100 μM, D-configuration, FIG. 7a; for axon outgrowth, extracellular 6-phosphate: FIG. 8f
# Protocol: Goldfish retinal ganglion cells are prepared as described in PCT application serial no. PCT/US98/03001, the contents of which are incorporated herein by reference, and contacted with a hexose derivative such as mannose. The ability of the hexose derivative to stimulate axonal outgrowth from the goldfish retinal ganglion cells is monitored as described in PCT application serial no. PCT/US98/03001.
# Goldfish retinal ganglion cell cultures. Mammalian AF-1 was initially characterized in bioassays using dissociated goldfish retinal ganglion cells (RGCs). In brief, Comet variety goldfish (Mt. Parnell Fisheries, PA) were dark-adapted, cooled to 4° C., and killed by cervical transection. Retinas were dissected and dissociated by incubation in papain followed by a series of trituration steps that result in an RGC-enriched cell suspension (Schwartz & Agronoff,; Schwalb et al., 1995). Approximately 500 RGCs per well were plated together with the experimental samples to be tested in defined, serum-free media containing Leibovitz' L15 media (Gibco BRL) plus N1 and N2 supplements (Bottenstein, Saito), antioxidants, and bovine serum albumin as described in detail elsewhere (Schwalb et al., 1995). In each experiment, 4 wells of each sample were distributed in 24-well plates in a blinded fashion so that the person evaluating axon outgrowth was unaware of the type of sample present in each well. Experiments included a positive control (previously validated goldfish AF-1 or inosine) and a negative control (defined media alone), likewise distributed on the plate in quadruplicate in a blinded fashion. After 6 days in culture at 21° C., axon outgrowth, operationally defined as the percent of RGCs that extended an axon≧5 cell diameters in length, was evaluated in approximately 150 consecutively encountered RGCs per well. […] Data are presented as normalized means ± SEM. All experiments were repeated at least 3 times.
# [2] = tested on: rat retinal ganglion cells; assay: Rat retinal ganglion cell culture, axon outgrowth; format: cell-based; conditions: rat RGCs; for axon outgrowth in the presence of forskolin: with forskolin, compared to forskolin alone, glucose up to 5 mM, mannose-6-phosphate up to 10 mM, FIG. 9a, 9c
# From the text: Rat retinal ganglion cell cultures. Retinal ganglion cells were identified by retrograde labeling with Fluorogold (FG: Fluorochrome, Inc.). […] After allowing 7 days for FG to be retrogradely transported up the optic nerve, rats were killed, eyes were removed, and the retinas dissected. Retinas were dissociated with papain treatment followed by trituration. Mixed cultures containing 100-150 FG-labeled RGCs per well were maintained in 24 well plates in a defined, serum-free media (Minimal Essential Media containing NaHCO3,) at 37° C. at 5% CO2 for 3 days.
# [3] = forskolin 10 μM, Rp-cAMPs 100 μM, MH 10 mM
# [4] = 6-TG 20 μM, NBTI 20 μM, forskolin 10 μM, Sp-cAMPs 150 μM, Rp-cAMPs 100 μM, H89 5 μM, FIG. 2, 4
structure (smiles),measurement,setting,value
O=CC[C@@H](O)[C@H](O)[C@H](O)CO [2-deoxy-D-glucose],effect on axon growth induced by inosine,"[1]; 6-TG 20 μM, NBTI 20 μM, listed as 2-DG",blocked the effects of both glucose and inosine; also recorded: also blocks the effect of inosine
same,axon outgrowth in response to glucose/mannose analogs,[1],ineffective; also recorded: No activity
same,effect on glucose-induced axon outgrowth,"[1]; forskolin 10 μM, Rp-cAMPs 100 μM, MH 10 mM, listed as 2-DG",blocked the effects of both glucose and inosine; also recorded: does block the effect of glucose
CO[C@@H]([C@H](O)[C@H](O)CO)[C@@H](O)C=O [3-O-methyl-D-glucose],axon outgrowth in response to glucose/mannose analogs,[1],ineffective; also recorded: No activity
same,effect on glucose-induced axon outgrowth,[1]; [3],fails to block the effect of glucose
"Nc1nc2nc[nH]c2c(=S)[nH]1 [6-TG, 6-thioguanine]",effect on axon growth induced by inosine,"[1]; 6-TG 20 μM, NBTI 20 μM",only partially blocked; also recorded: only partially inhibited
same,effect on axon growth induced by AF-1,[1]; [4],below baseline levels
same,effect on axon growth induced by VE<3,"[1]; 6-TG 20 μM, NBTI 20 μM",below baseline levels; also recorded: inhibited completely
same,effect on growth induced by VE<3 plus forskolin or Sp-cAMPs,"[2]; 6-TG, FIG. 3a",reduced growth; also recorded: strongly inhibited
O=C[C@H](O)[C@H](O)[C@H](O)[C@H](O)CO [D-allose],axon outgrowth in response to monosaccharides,[1],failed to stimulate outgrowth
O=C[C@@H](O)[C@H](O)[C@H](O)[C@H](O)CO [D-altrose],axon outgrowth in response to monosaccharides,[1],failed to stimulate outgrowth
O=C[C@H](O)[C@@H](O)[C@@H](O)[C@H](O)CO [D-galactose],axon outgrowth in response to monosaccharides,[1],failed to stimulate outgrowth
N[C@H]1C(O)O[C@H](CO)[C@@H](O)[C@@H]1O (stereo partly drawn) [D-glucosamine],axon outgrowth in response to glucose/mannose analogs,[1],strongly active
same,axon outgrowth in the presence of forskolin,[2],did not respond
O=C[C@H](O)[C@@H](O)[C@H](O)[C@H](O)COP(=O)(O)O [D-glucose-6-phosphate],"axon outgrowth, extracellular 6-phosphate",[1]; 100 μM,modest amount of outgrowth
same,"axon outgrowth, extracellular 6-phosphate",[1]; 1 mM,appreciable growth
same,axon outgrowth in response to glucose/mannose analogs,[1],relatively modest but statistically significant amount of outgrowth
same,axon outgrowth in response to glucose/mannose analogs,[1]; listed as D-glc-6-P,small but statistically significant level of outgrowth
O=C[C@H](O)[C@H](O)[C@@H](O)[C@H](O)CO [D-gulose],axon outgrowth in response to monosaccharides,[1],failed to stimulate outgrowth
same,axon outgrowth in the presence of forskolin,[2],some activity
N[C@@H]1C(O)O[C@H](CO)[C@@H](O)[C@@H]1O (stereo partly drawn) [D-mannosamine],axon outgrowth in response to glucose/mannose analogs,[1],ineffective
O=C[C@@H](O)[C@@H](O)[C@H](O)[C@H](O)COP(=O)(O)O [D-mannose-6-phosphate],"axon outgrowth, extracellular 6-phosphate",[1]; 100 μM,modest amount of outgrowth
same,"axon outgrowth, extracellular 6-phosphate",[1]; 1 mM,appreciable growth
same,axon outgrowth in response to glucose/mannose analogs,[1],relatively modest but statistically significant amount of outgrowth
same,axon outgrowth in response to glucose/mannose analogs,[1]; listed as D-man-6-P,small but statistically significant level of outgrowth
same,axon outgrowth in the presence of forskolin,[2],did not respond
O=C[C@@H](O)[C@@H](O)[C@@H](O)[C@H](O)CO [D-talose],axon outgrowth in response to monosaccharides,[1],failed to stimulate outgrowth
O=S(=O)(NCCNC/C=C/c1ccc(Br)cc1)c1cccc2cnccc12 [H89],effect on axon growth induced by AF-1,[1]; [4],not diminished
same,effect on axon growth induced by AF-1,"[1]; 6-TG 20 μM, NBTI 20 μM, forskolin 10 μM, Sp-cAMPs 150 μM, Rp-cAMPs 100 μM, H89 5 μM, FIG. 2, 4, listed as H-89",did not reduce AF-1 induced growth
same,effect on axon growth induced by AF-1,"[1]; H89 20 μM, FIG. 4",diminished the effect of AF-1; also recorded: higher concentrations of H89 (20 μM) did
CCCCCCOC(=O)[C@]1(O)C[C@@H]2O[C@@]1(C)n1c3ccccc3c3c4c(c5c6ccccc6n2c5c31)C(=O)NC4 [KT5720],effect on mannose-induced axon outgrowth,"[1]; KT5720 1 μM, MH 10 mM, dBcAMP, late fraction with 50 μM mannose",did not diminish the effect of mannose; also recorded: little effect on mannose-induced growth
same,effect on mannose-induced axon outgrowth,"[1]; KT5720 10 μM, FIG. 7f",only a slight effect
O=C[C@H](O)[C@H](O)[C@@H](O)[C@@H](O)CO [L-mannose],axon outgrowth in response to glucose/mannose analogs,[1],completely inactive; also recorded: inactivity
same,axon outgrowth in the presence of forskolin,[2],inactivity
"O=[N+]([O-])c1ccc(CSc2ncnc3c2ncn3[C@@H]2O[C@H](CO)[C@@H](O)[C@H]2O)cc1 [NBTI, 4-(nitrobenzyl-6-thioinosine)]",effect on axon growth induced by inosine,"[1]; 6-TG 20 μM, NBTI 20 μM",effectively blocked; also recorded: blocked completely
same,effect on axon growth induced by AF-1,[1]; [4],very little effect
same,effect on axon growth induced by VE<3,"[1]; 6-TG 20 μM, NBTI 20 μM",very little effect; also recorded: not affected
Nc1ncnc2c1ncn2[C@@H]1O[C@@H]2CO[P@@](O)(=S)O[C@H]2[C@H]1O [Rp-cAMPs],effect on axon growth induced by AF-1,[1]; [4],not diminished
same,effect on axon growth induced by AF-1,"[1]; 6-TG 20 μM, NBTI 20 μM, forskolin 10 μM, Sp-cAMPs 150 μM, Rp-cAMPs 100 μM, H89 5 μM, FIG. 2, 4, listed as Rp-cAMP-s",did not reduce AF-1 induced growth
same,block of glucose-induced outgrowth,[1]; Rp-cAMPs 1 mM,48%
same,effect on glucose-induced axon outgrowth,[1]; [3],no effect on glucose-induced outgrowth
"CC(=O)N[C@H]1C(O)O[C@H](CO)[C@@H](O)[C@@H]1O (some centres unmarked) [acetylglucosamine, N-acetyl-glucosamine]",axon outgrowth in response to glucose/mannose analogs,[1],ineffective
same,axon outgrowth in response to glucose/mannose analogs,[1]; listed as N-acetyl-glucosamine,No activity
O=C(CO)[C@@H](O)[C@H](O)[C@H](O)CO [fructose],axon outgrowth in response to monosaccharides,[1],failed to stimulate outgrowth
"C[C@H](O)[C@@H](O)[C@@H](O)[C@H](O)C=O [fucose, L-fucose]",axon outgrowth in response to glucose/mannose analogs,[1],ineffective
same,axon outgrowth in response to glucose/mannose analogs,[1]; listed as L-fucose,No activity
COC(=O)C(C)=O [methyl pyruvate],effect on outgrowth of adding energy substrate to the media,[1]; 5 mM,had no effect
CO[C@H]1O[C@H](CO)[C@@H](O)[C@H](O)[C@H]1O [methyl-α-D-glucopyranoside],axon outgrowth in response to glucose/mannose analogs,[1],ineffective
same,axon outgrowth in response to glucose/mannose analogs,[1]; listed as methyl-α-glucose pyranose,No activity
CO[C@@H]1O[C@H](CO)[C@@H](O)[C@H](O)[C@H]1O [methyl-β-D-glucopyranoside],axon outgrowth in response to glucose/mannose analogs,[1],ineffective
same,axon outgrowth in response to glucose/mannose analogs,[1]; listed as methyl-β-glucose pyranose,No activity
O[C@H]1[C@H](O)[C@@H](O)[C@H](O)[C@@H](O)[C@H]1O [myo-inositol],axon outgrowth in response to monosaccharides,[1],failed to stimulate outgrowth
O=C(CO)[C@H](O)[C@@H](O)[C@H](O)CO [sorbose],axon outgrowth in response to monosaccharides,[1],failed to stimulate outgrowth
